Results published in patent US11078213B2, “Thienopyrimidine compound, preparation method thereof, pharmaceutical composition and application thereof” (HONGYUN BIOTECH CO., LTD., priority 2016, dated 2021).

Experiments:
Assay type in all cases: cell-based
[1] = target: T1, EML4-ALK-BaF3 (Homo sapiens, UniProt Q9UM73); assay: Growth inhibition of BaF3 cells stably transfected with kinase EML4-ALK (MTS); conditions: compound concentration 3.3 μM, read-out: cell growth inhibition rate, EML4-ALK
T1 construct: EML4 (echinoderm microtubule associated protein like 4, Q9HC35) fusion partner; expressed in transfected cells; host or cells: BaF3; the other entry of the earlier key: EML4 (Q9HC35, Echinoderm microtubule-associated protein-like 4)
T1 sequence (Q9UM73 1058-1620 limits assumed): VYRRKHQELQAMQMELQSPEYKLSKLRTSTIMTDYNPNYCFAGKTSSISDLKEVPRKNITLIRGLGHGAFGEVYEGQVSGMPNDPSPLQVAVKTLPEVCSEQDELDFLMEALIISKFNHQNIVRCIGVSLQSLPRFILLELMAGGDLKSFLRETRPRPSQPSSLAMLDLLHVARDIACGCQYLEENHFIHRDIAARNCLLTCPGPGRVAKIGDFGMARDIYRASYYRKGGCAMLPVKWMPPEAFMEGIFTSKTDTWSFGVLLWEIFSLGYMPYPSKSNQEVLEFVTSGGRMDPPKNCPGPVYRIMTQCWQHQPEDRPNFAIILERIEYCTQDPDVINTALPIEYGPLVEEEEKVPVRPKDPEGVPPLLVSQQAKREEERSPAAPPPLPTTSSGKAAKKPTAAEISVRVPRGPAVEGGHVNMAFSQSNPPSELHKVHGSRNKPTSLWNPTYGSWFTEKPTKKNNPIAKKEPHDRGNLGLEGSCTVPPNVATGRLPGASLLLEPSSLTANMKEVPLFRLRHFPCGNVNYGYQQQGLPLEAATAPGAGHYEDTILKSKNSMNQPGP
Experimental: (§1) The specific test method is given as follows:
(§2) 2) Reagent: MTS reaction solution (containing 2 mg/mL of MTS [3-(4,5-dimethylthiazol-2-yl)-5-(3-carboxymethoxyphenyl)-2-(4-sulfophenyl)-2H-tetra zolium, inner Salt]; 100 µg/mL PES ([…])).

[2] = target: T2, NPM-ALK-BaF3 (Homo sapiens, UniProt Q9UM73); assay: Growth inhibition of BaF3 cells stably transfected with kinase NPM-ALK (MTS); conditions: compound concentration 3.3 μM, read-out: cell growth inhibition rate, NPM-ALK
T2 construct: NPM (nuclear phosphoprotein / nucleophosmin, NPM1, P06748) fusion partner; expressed in transfected cells; host or cells: BaF3; the other entry of the earlier key: NPM1 (P06748, Nucleophosmin)
T2 sequence (Q9UM73 with tags, fused parts or gaps): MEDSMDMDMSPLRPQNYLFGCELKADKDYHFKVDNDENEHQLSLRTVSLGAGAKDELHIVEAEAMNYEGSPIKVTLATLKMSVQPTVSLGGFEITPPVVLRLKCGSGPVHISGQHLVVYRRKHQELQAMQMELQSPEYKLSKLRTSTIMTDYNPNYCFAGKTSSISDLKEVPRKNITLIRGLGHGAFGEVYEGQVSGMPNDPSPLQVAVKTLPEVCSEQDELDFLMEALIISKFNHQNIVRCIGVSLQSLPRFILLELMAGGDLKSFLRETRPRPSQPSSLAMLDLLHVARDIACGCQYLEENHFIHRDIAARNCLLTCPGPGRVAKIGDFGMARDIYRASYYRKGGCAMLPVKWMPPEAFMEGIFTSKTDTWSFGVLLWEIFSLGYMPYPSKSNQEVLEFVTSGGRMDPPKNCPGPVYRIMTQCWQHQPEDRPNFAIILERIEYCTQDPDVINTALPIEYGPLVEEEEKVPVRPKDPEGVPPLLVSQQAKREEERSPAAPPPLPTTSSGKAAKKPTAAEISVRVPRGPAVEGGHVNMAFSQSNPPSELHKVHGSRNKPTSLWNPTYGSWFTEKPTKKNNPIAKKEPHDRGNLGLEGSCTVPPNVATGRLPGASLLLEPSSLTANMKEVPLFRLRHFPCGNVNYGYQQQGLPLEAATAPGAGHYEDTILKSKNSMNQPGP
Experimental: as §1, §2

[3] = tested on: anaplastic large cell lymphoma Karpas-299; assay: Growth inhibitory activity on tumor cells Karpas-299; conditions: Homo sapiens; Karpas-299 tumor cells
Experimental: If the tumor cells tested were suspension cells, the assay was carried out in accordance with the method (1) above.
If the tumor cells tested were adherent cells, cells were incubated 1000-10000 cells/well in a 96-well culture plate until adherent, and then compounds were added. Others were carried out in accordance with the method (1) above.

Row | SMILES | inhibition at 3.3 µM [1] [%] | inhibition at 3.3 µM [2] [%] | IC50 [3] [nM]
1 | COc1cc2c(cc1Nc1nc(Nc3ccccc3S(C)(=O)=O)c3sccc3n1)N(C(=O)CN(C)C)CC2 [IA-1] | 94.9 | 87.6 | 
2 | COC(=O)c1ccccc1Sc1nc(Nc2cc(C)c(C3CCN(C)CC3)cc2OC)nc2ccsc12 [IN-7] | > 99 | 70 | 
3 | COc1cc(N2CCC(N3CCCC3)CC2)ccc1Nc1nc(Nc2ccccc2[S+]([O-])C(C)C)c2sccc2n1 (stereo not shown) [IJ-3] | 99.9 | 84.8 | 
4 | COc1cc(N2CCC(N(C)C)CC2)ccc1Nc1nc(Nc2ccccc2P(C)(C)=O)c2sccc2n1 [IK-6] | 99.3 | 90.2 | 
5 | COC(=O)c1ccccc1Nc1nc(Nc2ccc(N3CCC(N4CCCC4)CC3)cc2OC)nc2ccsc12 [IE-5] | 99 | 87.6 | 
6 | COC(=O)c1ccccc1Nc1nc(Nc2cc(C)c(C3CCN(C)CC3)cc2OC)nc2ccsc12 [IE-8] | 98 | 84.2 | 
7 | COc1cc(N2CCC(N3CCN(C)CC3)CC2)ccc1Nc1nc(Nc2ccccc2[S+]([O-])C(C)C)c2sccc2n1 (stereo not shown) [IJ-2] | 99.3 | 87.7 | 
8 | CNC(=O)c1ccccc1Nc1nc(Nc2ccc(N3CCC(N4CCN(C)CC4)CC3)cc2)nc2ccsc12 [II-6] | 92.9 | 36.9 | 
9 | COC(=O)c1ccccc1Nc1nc(Nc2ccc(N3CCN(C)CC3)cc2OC)nc2ccsc12 [IE-3] | 96.7 | 85.5 | 
10 | COc1cc(N2CCC(N3CCCC3)CC2)ccc1Nc1nc(Nc2cccc(NS(C)(=O)=O)c2)c2sccc2n1 [IG-5] | > 99 | 10.9 | 
11 | COc1cc(N2CCC(N3CCCC3)CC2)ccc1Nc1nc(Nc2ccccc2P(C)(C)=O)c2sccc2n1 [IK-3] | > 99 | 82.5 | 
12 | COC(=O)c1cccc(Nc2nc(Nc3cc(C)c(C4CCN(C)CC4)cc3OC(C)C)nc3ccsc23)c1 [ID-5] | > 99 | 93.9 | 
13 | C[C@@H](Oc1cc(-c2cnn(C3CCNCC3)c2)cnc1N)c1c(Cl)ccc(F)c1Cl [Crizotinib, reference compound] |  |  | 61
14 | COC(=O)c1ccccc1Nc1nc(Nc2ccc(N3CCC(O)CC3)cc2)nc2ccsc12 [IE-2] | 98.2 | 50.5 | 
15 | CCOc1cc(N2CCN(C)CC2)ccc1Nc1nc(Nc2ccccc2C(=O)OC)c2sccc2n1 [IE-6] | 98.5 | 0 | 
16 | COc1cc2c(cc1Nc1nc(Nc3ccccc3[S+]([O-])C(C)C)c3sccc3n1)N(C(=O)CN(C)C)CC2 (stereo not shown) [IJ-1] | > 99 | 87.1 | 
17 | CNC(=O)c1ccccc1Nc1nc(Nc2cc(C)c(C3CCN(C)CC3)cc2OC(C)C)nc2ccsc12 [II-8] | > 99 | 86.6 | 
18 | COc1cc(N2CCN(C)CC2)ccc1Nc1nc(Nc2ccccc2[S+]([O-])C(C)C)c2sccc2n1 (stereo not shown) [IJ-4] | > 99 | 88.8 | 
19 | COC(=O)c1cccc(Nc2nc(Nc3cc(C)c(C4CCN(C)CC4)cc3OC)nc3ccsc23)c1 [ID-6] | 99.9 | -24.1 | 
20 | COc1cc(N2CCC(N3CCN(C)CC3)CC2)ccc1Nc1nc(Nc2ccccc2S(=O)(=O)C(C)C)c2sccc2n1 [IB-2] | 82.9 | 94.4 | 
21 | CNC(=O)c1cccc(F)c1Nc1nc(Nc2cc3c(cc2OC)CCN3C(=O)CN(C)C)nc2ccsc12 [IF-1] | > 99 | 6.16 | 
22 | COc1cc(N2CCC(N3CCCC3)CC2)ccc1Nc1nc(Nc2ccccc2S(C)(=O)=O)c2sccc2n1 [IA-3] | 99.8 | 92.7 | 
23 | COc1cc(C2CCN(C)CC2)c(C)cc1Nc1nc(Nc2cccc(NS(C)(=O)=O)c2)c2sccc2n1 [IG-4] | 97.8 | 87.6 | 

Row | SMILES | inhibition at 3.3 µM [1] [%] | inhibition at 3.3 µM [2] [%] | IC50 [3] [nM]
24 | COc1cc(C2CCN(C)CC2)c(C)cc1Nc1nc(Nc2ccccc2P(C)(C)=O)c2sccc2n1 [IK-5] | 99.6 | 85.5 | 
25 | COC(=O)c1ccccc1Sc1nc(Nc2ccc(N3CCN(C)CC3)cc2OC)nc2ccsc12 [IN-3] | 98.8 | 12.3 | 
26 | COC(=O)c1ccccc1Sc1nc(Nc2ccc(N3CCC(N4CCN(C)CC4)CC3)cc2OC)nc2ccsc12 [IN-2] | 99.2 | 16.2 | 
27 | COC(=O)c1ccccc1Nc1nc(Nc2ccc(N3CCC(N4CCN(C)CC4)CC3)cc2OC)nc2ccsc12 [IE-1] | 97 | 69.5 | 
28 | COC(=O)c1ccccc1Sc1nc(Nc2cc3c(cc2OC)CCN3C(=O)CN(C)C)nc2ccsc12 [IN-1] | 100 | 17.7 | 
29 | COc1cc2c(cc1Nc1nc(Nc3ccccc3P(C)(C)=O)c3sccc3n1)N(C(=O)CN(C)C)CC2 [IK-1] | > 99 | 86.7 | 
30 | COC(=O)c1ccccc1Nc1nc(Nc2cc(C)c(C3CCN(C)CC3)cc2OC(C)C)nc2ccsc12 [IE-7] | 98.8 | 86.1 | 
31 | COc1cc(N2CCC(N(C)C)CC2)ccc1Nc1nc(Nc2ccccc2[S+]([O-])C(C)C)c2sccc2n1 (stereo not shown) [IJ-6] | > 99 | 81.9 | 
32 | COC(=O)c1ccccc1Sc1nc(Nc2ccc(N3CCC(O)CC3)cc2)nc2ccsc12 [IN-4] | 98.3 | 7.09 | 
33 | COC(=O)c1ccccc1Sc1nc(Nc2ccc(N3CCC(N4CCCC4)CC3)cc2OC)nc2ccsc12 [IN-6] | 98.4 | 46.7 | 
34 | COC(=O)c1cccc(Nc2nc(Nc3ccc(N4CCC(N5CCCC5)CC4)cc3OC)nc3ccsc23)c1 [ID-4] | 98.5 | 90.7 | 
35 | CNC(=O)c1ccccc1Nc1nc(Nc2ccc(N3CCC(N4CCCC4)CC3)cc2OC)nc2ccsc12 [II-7] | 98.5 | 79.5 | 
36 | CNC(=O)c1ccccc1Nc1nc(Nc2cc(C)c(C3CCN(C)CC3)cc2OC)nc2ccsc12 [II-9] | 99.9 | 90 | 
37 | COc1cc(C2CCN(C)CC2)c(C)cc1Nc1nc(Nc2ccccc2NS(C)(=O)=O)c2sccc2n1 [IH-5] | 98 | 84.2 | 
38 | COc1cc(N2CCC(N3CCCC3)CC2)ccc1Nc1nc(Nc2ccccc2NS(C)(=O)=O)c2sccc2n1 [IH-6] | 97.8 | 84.5 | 
39 | CNC(=O)c1cccc(F)c1Nc1nc(Nc2ccc(N3CCC(N4CCN(C)CC4)CC3)cc2OC)nc2ccsc12 [IF-2] | 3.41 | 2.77 | 
40 | COc1cc(N2CCN(C)CC2)ccc1Nc1nc(Nc2ccccc2S(C)(=O)=O)c2sccc2n1 [IA-4] | 99.6 | 86 | 
41 | COc1cc(N2CCC(N3CCN(C)CC3)CC2)ccc1Nc1nc(Nc2ccccc2S(C)(=O)=O)c2sccc2n1 [IA-2] | 98.9 | 87.6 | 
42 | CNC(=O)c1cccc(F)c1Nc1nc(Nc2ccc(N3CCN(C)CC3)cc2OC)nc2ccsc12 [IF-3] | 87.1 | 12 | 
43 | COc1cc(N2CCN(C)CC2)ccc1Nc1nc(Nc2ccccc2P(C)(C)=O)c2sccc2n1 [IK-4] | 99.3 | 77.4 | 
44 | COC(=O)c1ccccc1Sc1nc(Nc2ccc(S(N)(=O)=O)cc2)nc2ccsc12 [IN-5] | 30.9 | 6.73 | 
45 | COc1cc(N2CCC(N3CCN(C)CC3)CC2)ccc1Nc1nc(Nc2ccccc2P(C)(C)=O)c2sccc2n1 [IK-2] | 100 | 82.8 | 
46 | COC(=O)c1ccccc1Nc1nc(Nc2ccc(N3CCC(N4CCN(C)CC4)CC3)cc2)nc2ccsc12 [IE-4] | 96.7 | 93.6 | 
